Test results reported in patent publication US20260364072A1, “METHODS FOR PROMOTING EXPANSION OF HUMAN CD34+ CELLS IN VIVO AND FOR PROMOTING NEURAL REGENERATION” (THE REGENTS OF THE UNIVERSITY OF CALIFORNIA, priority 2023, published 2026).

Tests used:
[1] = Multi-species (rat, rabbit, NHP) pre-IND studies; assay type: in vivo
Method: […] Rat and rabbit studies included toxicology analyses, quantification of plasma levels of Rebecsinib, and necropsies to evaluate organ integrity after treatment. For NHP studies, health and ophthalmological evaluations were performed before and after dosing with Rebecsinib, and blood samples were collected for quantification of plasma levels of Rebecsinib and biomarker studies in PBMCs from treated and control animals. All monkeys were returned to the animal colony after the end of the observation period. Toxicokinetic values including mean plasma concentrations and t1/2 values were calculated according to CRO-approved protocols (Charles River and BASi).

[2] = test system: CD34+Lin- cells (sAML50261); experiment: sAML50261 PDX mice, flow cytometry of PB, SP, BM; assay type: in vivo, human cells in Rag2-/-gc-/- mice; details: 10 mg/kg, intravenously, twice a week for 2 weeks
Method: The mouse models were screened by staining the PB of each mouse with a human CD45 mAb. Mice with a threshold of human CD45^+ cells >1% were included in the treatment cohort for Rebecchini. The dosing plan involved administering Rebecsinib at a dose of 10 mg/kg, intravenously, twice a week for 2 weeks, with a total of 5 doses. Single cells were isolated from the mouse organs, including PB, SP, and BM, and subjected to staining with human stem cell markers and lineage cell markers.

[3] = test system: ADAR1; experiment: ADAR1 nanoluc-GFP reporter assay in primary high-risk MF CD34+ cells in stromal co-culture; assay type: cell-based, human; details: primary high-risk MF HPCs, 72 hr; p<0.05 compared to DMSO
Excerpt: (FIG. 27F) Luminescence-based quantification of ADAR1-dependent nanoluciferase signals in CD34^+ cells from primary, high-risk MF samples (*=untreated patient) after in vitro transduction with the ADAR1 nanoluc-GFP reporter and treatment with vehicle control (DMSO) or Rebecsinib (72 hr). Relative luciferase signals were normalized to cell viability for each condition. Data are represented as mean±SEM. p<0.05 compared to DMSO controls by pairwise t-test.
For nanoluciferase RNA editing activity assays, CD34^+ selected cells from primary high-risk MF samples were lentivirally transduced with ADAR1 nanoluc-GFP reporter for 48 hr, followed by treatment with DMSO or Rebecsinib in stromal co-culture for 72 hr. Luminescence reporter activity was measured in 10,000 cells by NANO-GLO LUCIFERASE ASSAY™ and values were normalized to cell viability. Cell viability was measured in 10,000 cells by CellTiter-Glo Luciferase Assay (Promega). A pilot in vivo reporter assay was also performed using TF-1a cells that were stably transduced with the ADAR1 nanoluc-GFP reporter. […] Cells were transplanted into neonatal Rag2^−/−γc^−/− mice (70,000 cells per mouse), and animals were imaged 4 weeks after transplant on the IVIS 200, as previously described.^7,9 Human cell engraftment was also confirmed in the peripheral blood in the same week as imaging.

[4] = test system: ADAR1; experiment: ADAR1 expression by qRT-PCR in TF1a cells; assay type: cell-based, human; details: TF1a AML cell line; 0.1 μM, 4 hours
Excerpt: For lentivirus-mediated knockdown of human ADAR1 in ADAR1 activation and RNA editing biomarker studies of the nanoluc-GFP reporter and endogenous transcripts, human leukemia cells were stably transduced with the lentiviral shRNA vectors targeting ADAR1 (shADAR1) or scrambled control (shCtrl) to ablate endogenous ADAR1 expression. The shRNA plasmids targeting ADAR1 (shADAR1) as well as the scrambled control (shCtrl) were purchased from VectorBuilder (Chicago, IL) (shCtrl: […] (SEQ ID NO:3) and shADAR1: […]) (SEQ ID NO:4). […] Viral titers were assessed by qRT-PCR and transduction efficiency was tested in 293T cells. […]
For quantitative analysis of splice isoform expression, RNA editing rates, and whole gene expression by qRT-PCR, cells or tissue fragments were harvested in RNA lysis buffer and total RNA was extracted using RNeasy mini or micro extraction kits (QIAGEN, Germantown, MD) following the manufacturer's protocol including a DNase incubation step to digest any trace genomic DNA present. Levels of ADAR1 variants and LSC-specific transcripts were quantified by qRT-PCR as previously described.^14 RNA-editing site-specific qRT-PCR (RESSqPCR) was performed for variants in AZIN1 transcripts.^53 Additional species-specific primers were also designed to quantify intron retention rates in cells treated with Rebecsinib as a biomarker of response to RNA splicing modulation. […]

## CC[C@H](OC)[C@@H](C)[C@H]1O[C@@H]1[C@@H](O)[C@H](C)/C=C/C=C(\C)[C@H]1OC(=O)C[C@H](O)CC[C@@](C)(O)[C@@H](OC(C)=O)/C=C/[C@@H]1C [Rebecsinib]
[1]
  systemic toxicity: no evidence of systemic toxicity
[1]; clinically tractable formulation
  bioavailability and stability: favorable bioavailability and stability
[1]; pre-IND studies
  tolerability in rat, rabbit, NHP: well tolerated
[1]; rat, rabbit, NHP
  splicing modulation: dose-dependent increases in splicing modulation
[2]
  human CD45+ cells in PB, BM, and SP: preserved human CD45^+ cells
[2]; p=0.0006, Student's t-test
  CD34+Lin- cell population in SP: significant inhibition
[2]; p=0.0015, Student's t-test
  CD34+Lin- cell population in PB: significant inhibition
[3]
  ADAR1 RNA editing activity (nanoluciferase signal): significantly reduced ADAR1 RNA editing activity
[4]
  ADAR1 expression as measured by qRT-PCR: reduced ADAR1 expression
